Test results taken from US10138271B2, “Native and agonist CTL epitopes of the MUC1 tumor antigen” (The United States of America, as represented by the …, priority 2012, dated 2018).

How the values were obtained:
[1] = test system: MUC1-C-specific T-cell lines; assay: IFN-γ release by MUC1-C-specific T-cell lines stimulated with peptide-pulsed autologous B cells (ELISA); format: cell-based, human; conditions: for IFN-γ: T-cell line generated with and stimulated by the same peptide, APC:T 2:1, 24 hour supernatant; for IFN-γ production by agonist peptide-specific T-cell line, agonist versus native peptide: at each peptide concentration, FIG. 1A-C
Description: Supernatants of T cells stimulated for 24 h with peptide-pulsed autologous DCs or autologous EBV-transformed B cells in IL-2-free medium at various peptide concentrations were screened for secretion of IFN-γ by ELISA kit (BioSource International, Camarillo, Calif.). Results were expressed in pg/mL.
To evaluate the specificity of these T-cell lines, an IFN-γ release assay was performed using irradiated autologous B cells pulsed with the corresponding peptide. T cells were stimulated with irradiated autologous B cells pulsed with corresponding peptide at an APC:T cell ratio of 2:1. T cells were used at a concentration of 5×10^5/mL. 24 hour culture supernatants were collected and screened for secretion of IFN-γ. T-1-P1172(1Y), T-1-P1177(10V), and T-2-P1240(1Y) cell lines produced higher levels of IFN-γ compared to T-cell lines generated using corresponding native peptides (Table 2).
Studies were then conducted to compare the ability of the native peptides and the agonist peptides, at various concentrations, to activate the agonist peptide-specific T cells.
An additional T-cell line was then established from the PBMCs of another patient (patient 3) with colon cancer from the same clinical trial described above, using P1177 and P1177(10V), designated T-3-P1177 and T-3-P1177(10V), respectively.

T-VNTR-5 T cell line = assay: IFN-γ production by VNTR-5-specific T cell line stimulated with agonist or native peptide; format: cell-based, human; conditions: APC:T 3:1, 24 hours
Description: (§1) T-VNTR-3 (VNTR-3 agonist peptide-specific T cell line) and T-VNTR-5 (VNTR-5 agonist peptide-specific T cell line) were separately cultured at a concentration of 1×10^5 cells/mL. The ratio of APC:T cells was 3:1. The agonist or native peptides were used at various concentrations (see Tables 14 and 15). The supernatents were collected after 24 hours, and the amount of IFN-γ was determined. The VNTR-3- and VNTR-5-specific T cell lines stimulated with agonist peptides produced higher levels of IFN-γ as compared to stimulation with native peptides (see Tables 14 and 15).

HLA-A2 molecules [2] = biological target: T1, HLA-A2 molecules (Homo sapiens, UniProt P04439, D140Y/D185E/D98H/E176V/E277Q/G131W/G231S/I119V/I121R/I166T/I218V/L300P/L318F/N151K/N90K/P208A/P217A/Q86G/Q94H/R138H/R169H/T345S); assay: Peptide binding to HLA-A2: upregulation of HLA-A2 expression on T2/T2A2 cells by flow cytometry; conditions: for T2 Binding (mean fluorescence intensity): peptide 12.5 μg/mL; for T2A2 Binding (mean fluorescence intensity): peptide 25 μg/mL
T1 construct: endogenous in cells; host or cells: T2 / T2A2 cells (174CEM-T2, transport deletion mutant)
Description: Single-color flow cytometric analysis has been previously described in Guadagni et al., Cancer Res., 50: 6248-6255 (1990). Briefly, cells were washed 3 times with cold Ca2^+- and Mg2^+-free Dulbecco's phosphate-buffered saline (PBS), and then stained for 1 h at 4° C. using FITC-conjugated monoclonal antibodies anti-HLA-A2,28 (One Lambda, Inc., Canoga Park, Calif.), anti-CD3, anti-CD4, and anti-CD8 (BD Biosciences, San Jose, Calif.). Mouse IgG2a, k FITC (BD Biosciences) was used as isotype control. The cells were then washed 3 times with cold Ca2^+- and Mg2^+-free PBS, resuspended in the same buffer, and immediately analyzed using a FACScan (Becton Dickinson, Franklin Lakes, N.J.) and CellQuest software (BD Biosciences). Results were generated from data gathered from 10,000 live cells and expressed as percent-positive cells and mean fluorescence intensity (MFI). The MFI value was collected in log scale and used to express levels of fluorescence determined by measuring the average for all cells in the fluorescence dot plot.

T-VNTR-3 T cell line = assay: IFN-γ production by VNTR-3-specific T cell line stimulated with agonist or native peptide; format: cell-based, human; conditions: APC:T 3:1, 24 hours
Description: as §1

HLA-A2 molecules [3] = biological target: T1, HLA-A2 molecules; assay: Stability of peptide/HLA-A2 complexes (percentage of remaining complexes over time); format: binding; conditions: time points 0, 2, 4, 6, 8, 10 h
Description: The stability of the peptide/HLA-A2 complexes of the analogs and native peptides were analyzed by determining the percentage of the remaining complexes on HLA-A2 molecules at different time points (0, 2, 4, 6, 8, and 10 h).
The stability of the peptide/HLA-A2 complexes of the analogs and native peptides was analyzed by determining the percentage of the remaining complexes on HLA-A2 molecules at different time points (0, 2, 4, 6, 8, and 10 h).

Work on ALAIVYLIAL [Peptide P1172] yielded an IFN-γ [1] of 158.3 pg/mL.

APDTRPAPG [VNTR-4] gave an IFN-γ (T-VNTR-5 T cell line; peptide 1.56 μg/mL) of 19.8 pg/mL, an IFN-γ (T-VNTR-5 T cell line; peptide 3.13 μg/mL) of 53.2 pg/mL and an IFN-γ (T-VNTR-5 T cell line; peptide 6.25 μg/mL) of 63.1 pg/mL. It also gave an IFN-γ (T-VNTR-5 T cell line; peptide 12.5 μg/mL) of 109.3 pg/mL and an IFN-γ (T-VNTR-5 T cell line; peptide 25 μg/mL) of 117.9 pg/mL.

In the case of GLFDEYLEMV [NGEP (P703)], the “T2 Binding (mean fluorescence intensity)” value (HLA-A2 molecules [2]) is reported as 481.93 MFI and the “T2A2 Binding (mean fluorescence intensity)” value (HLA-A2 molecules [2]) is reported as 485.3 MFI.

For HLFGYSWYK [CAP-7], the “T2 Binding (mean fluorescence intensity)” value (HLA-A2 molecules [2]) was 109.1 MFI and the “T2A2 Binding (mean fluorescence intensity)” value (HLA-A2 molecules [2]) was 83.8 MFI.

SLSYTNPAV [Peptide P1240] was tested, and the IFN-γ [1] was 437.3 pg/mL.

Work on STAPPAHGV [VNTR-2] yielded an IFN-γ (T-VNTR-3 T cell line; peptide 1.56 μg/mL) of 29.0 pg/mL, an IFN-γ (T-VNTR-3 T cell line; peptide 3.13 μg/mL) of 75.8 pg/mL and an IFN-γ (T-VNTR-3 T cell line; peptide 6.25 μg/mL) of 127.0 pg/mL. It also gave an IFN-γ (T-VNTR-3 T cell line; peptide 12.5 μg/mL) of 203.0 pg/mL and an IFN-γ (T-VNTR-3 T cell line; peptide 25 μg/mL) of 261.0 pg/mL.

In the case of YLAIVYLIAL [P1172(1Y)], the “Stability of peptide/HLA-A2 complexes, analog versus native peptide” value (HLA-A2 molecules [3]) is reported as “No differences”, the IFN-γ [1] is reported as 605.0 pg/mL and the “IFN-γ production by agonist peptide-specific T-cell line, agonist versus native peptide” value (“IFN-γ production … agonist versus native peptide” below) [1] is reported as “greatest level of IFN-γ production”.

For YLAPPAHGV [VNTR-3], the “Stability of peptide/HLA-A2 complexes, analog versus native peptide” value (HLA-A2 molecules [3]) was “greater avidity for class I molecules than the native peptides”, the IFN-γ (T-VNTR-3 T cell line; peptide 1.56 μg/mL) was 304.9 pg/mL and the IFN-γ (T-VNTR-3 T cell line; peptide 3.13 μg/mL) was 457.6 pg/mL. For the same sequence, the IFN-γ (T-VNTR-3 T cell line; peptide 6.25 μg/mL) was 685.3 pg/mL, the IFN-γ (T-VNTR-3 T cell line; peptide 12.5 μg/mL) was 766.1 pg/mL and the IFN-γ (T-VNTR-3 T cell line; peptide 25 μg/mL) was 771.5 pg/mL.

In the case of YLDTRPAPV [VNTR-5], the “Stability of peptide/HLA-A2 complexes, analog versus native peptide” value (HLA-A2 molecules [3]) is reported as “greater avidity for class I molecules than the native peptides”, the IFN-γ (T-VNTR-5 T cell line; peptide 1.56 μg/mL) is reported as 205.1 pg/mL and the IFN-γ (T-VNTR-5 T cell line; peptide 3.13 μg/mL) is reported as 322.0 pg/mL. For the same sequence, the IFN-γ (T-VNTR-5 T cell line; peptide 6.25 μg/mL) was 452.9 pg/mL, the IFN-γ (T-VNTR-5 T cell line; peptide 12.5 μg/mL) was 496.2 pg/mL and the IFN-γ (T-VNTR-5 T cell line; peptide 25 μg/mL) was 543.7 pg/mL.

With YLIALAVCQC [Peptide P1177] the IFN-γ [1] was 666.4 pg/mL.

For YLIALAVCQV [P1177(10V)], the “Stability of peptide/HLA-A2 complexes, analog versus native peptide” value (HLA-A2 molecules [3]) was “greater avidity for class I molecules than the native peptide P1177 at each time point”, the IFN-γ [1] was >1,000 pg/mL and the “IFN-γ production … agonist versus native peptide” value [1] was “greatest level of IFN-γ production”.

YLSYTNPAV [P1240(1Y)] was tested, and the “Stability of peptide/HLA-A2 complexes, analog versus native peptide” value (HLA-A2 molecules [3]) was “No differences”, the IFN-γ [1] was >1,000 pg/mL and the “IFN-γ production … agonist versus native peptide” value [1] was “greatest level of IFN-γ production”.
